PMC3025922 (BMC Biology, 2010)
Where two headings read alike, the source gives them in different places.

System: nuclear p27 in LNCaP-S14 cells
Type: cell-based, human
[1] = primary screening, nuclear p27 in LNCaP-S14 cells
[2] = primary screening, S = strong, M = medium, W = weak by Z score

| SMILES | Z score (aver) [1] | Clasf [2] | Clasf | Z score (aver) |
| --- | --- | --- | --- | --- |
| COc1ccccc1N1CCN(C(=O)CSc2nc3ccccc3c(=O)n2CCC(=O)NC2CCCCC2)CC1 [1158L12] | 2.46 | W (weak (Z score 2-3) | – | – |
| CC1CN(C(=O)c2cc(-c3ccc(Cl)cc3)cs2)CC(C)O1 (stereo not drawn) [520H18] | 6.87 | S (strong (Z score > 5)) | – | – |
| CN(C)c1ccc(C=CC=CC23NC(=O)CN2c2ccccc2C3(C)C)cc1 (stereo not drawn) [1160J08] | 4.94 | M (medium (Z score 3-5)) | – | – |
| CS(=O)(=O)c1ccc(C=CC(=O)Nc2ccccn2)cc1 [518N17] | 4.22 | M (medium (Z score 3-5)) | – | – |
| CN(C)c1ccc(O)c2c1CC1CC3C(N(C)C)C(O)=C(C(N)=O)C(=O)C3(O)C(O)=C1C2=O.Cl (stereo not drawn) [501G12] | 5.15 | S (strong (Z score > 5)) | – | – |
| COc1ccccc1C(=O)N1c2ccccc2Sc2ccccc21 [1160M09] | 2.71 | W (weak (Z score 2-3) | – | – |
| N=C(NCCCCCCNC(=N)NC(=N)Nc1ccc(Cl)cc1)NC(=N)Nc1ccc(Cl)cc1 [1568M08] | 6.26 | S (strong (Z score > 5)) | – | – |
| CCCCCCC[N+](CC)(CC)CCCCc1ccc(Cl)cc1.Cc1ccc(S(=O)(=O)[O-])cc1 [1568P20] | 9.16 | S (strong (Z score > 5)) | – | – |
| O=C(C(c1ccccc1)c1ccccc1)N(Cc1ccc(Cl)cc1)Cc1ccc2cc[nH]c2c1 [522N04] | 2.29 | W (weak (Z score 2-3) | – | – |
| C=C(CC)C(=O)c1ccc(OCC(=O)O)c(Cl)c1Cl [1568D20] | 3.20 | M (medium (Z score 3-5)) | – | – |
| Cc1cc(N)c2ccccc2[n+]1CCCCCCCCCC[n+]1c(C)cc(N)c2ccccc21.Cl [1569M17] | 9.20 | S (strong (Z score > 5)) | – | – |
| O=C1C(Cl)=C(N2CCC(C(=O)N3CCOCC3)CC2)C(=O)c2ccccc21 [567A03] | 6.25 | S (strong (Z score > 5)) | – | – |
| Cc1ccc(-c2cn3c([n+]2-c2ccc(C)cc2)CCCCC3)cc1 [1159I14] | 2.49 | W (weak (Z score 2-3) | – | – |
| CC#CC1(O)CCC2C3CCC4=CC(=O)CCC4=C3C(c3ccc(N(C)C)cc3)CC21C (stereo not drawn) [1568L20] | 3.22 | M (medium (Z score 3-5)) | – | – |
| CC=C(C)C(=O)OC1C(C)=C2C(C1OC(=O)CCCCCCC)C(C)(OC(C)=O)CC(OC(=O)CCC)C1(O)C2OC(=O)C1(C)O (stereo not drawn) [1361L03] | 8.27 | S (strong (Z score > 5)) | – | – |
| O=C1C=C2C=CC3CC2(O1)C1CCCCN31 (stereo not drawn) [1570J03] | 3.84 | M (medium (Z score 3-5)) | – | – |
| CSc1ccc2c(c1)C(N1CCN(C)CC1)Cc1ccccc1S2.O=C(O)C=CC(=O)O (stereo not drawn) [1569K11] | 4.55 | M (medium (Z score 3-5)) | – | – |
| O=C(Nc1ccccc1)Nc1ccc(SCc2nc(OCC(F)(F)F)cc(OCC(F)(F)F)n2)cc1 [521I09] | 3.70 | M (medium (Z score 3-5)) | – | – |
| COCC1OC(=O)c2coc3c2C1(C)C1=C(C3=O)C2CCC(=O)C2(C)CC1OC(C)=O (stereo not drawn) [1362N13] | 6.65 | S (strong (Z score > 5)) | – | – |
| CCN(CC)CCCC(C)Nc1c2ccc(Cl)cc2nc2ccc(OC)cc12 (stereo not drawn) [1568P18] | 6.13 | S (strong (Z score > 5)) | – | – |
| CC(=O)Nc1ccc(S(=O)(=O)N(Cc2ccc3c(c2)CCO3)C2CC2)cc1 [541J07] | 3.47 | M (medium (Z score 3-5)) | – | – |
| CCOC(=O)C1=C(C)N=c2sc(=Cc3ccc(N(CC)CC)o3)c(=O)n2C1c1ccccc1OC (stereo not drawn) [1158M07] | 11.51 | S (strong (Z score > 5)) | – | – |
| CC1OC(OC2CCC3(C=O)C4CCC5(C)C(C6=CC(=O)OC6)CCC5(O)C4CCC3(O)C2)CC(O)C1O (stereo not drawn) [1570A13] | 2.74 | W (weak (Z score 2-3) | – | – |
| COc1ccc(Br)cc1C1CC(=O)Nc2c1ccc1ccccc21 (stereo not drawn) [1159L15] | 2.32 | W (weak (Z score 2-3) | – | – |
| CCOC(=O)c1cc(C#N)c(Sc2ccc(C)cc2)nc1C(F)(F)F [1520B07] | 5.43 | S (strong (Z score > 5)) | – | – |
| CCC(=C(c1ccccc1)c1ccc(OCCN(C)C)cc1)c1ccccc1.O=C(O)CC(O)(CC(=O)O)C(=O)O [1568M14] | 2.56 | W (weak (Z score 2-3) | – | – |

| SMILES | Z score (aver) [1] | Clasf [2] | Clasf | Z score (aver) |
| --- | --- | --- | --- | --- |
| Fc1ccc(-c2cc(NC3CC3)nc(-c3ccncc3)n2)cc1 [1306K08] | 3.56 | M (medium (Z score 3-5)) | – | – |
| CC=C(C(=CC)c1ccc(O)cc1)c1ccc(O)cc1 [502G13] | 2.95 | W (weak (Z score 2-3) | – | – |
| CC(C)CC1C(=O)N2CCCC2C2(O)OC(NC(=O)C3C=C4c5cccc6[nH]c(Br)c(c56)CC4N(C)C3)(C(C)C)C(=O)N12.CS(=O)(=O)O (stereo not drawn) [502C19] | 2.62 | W (weak (Z score 2-3) | – | – |
| COc1cc(C(=O)N2c3ccc(C)cc3-c3c(ssc3=S)C2(C)C)cc(OC)c1OC [1160F11] | 3.09 | M (medium (Z score 3-5)) | – | – |
| COC12C(COC(N)=O)C3=C(C(=O)C(C)=C(N)C3=O)N1CC1NC12 (stereo not drawn) [503O09] | – | – | M (key: S: strong (Z score > 5); M: medium (Z score 3-5); W: weak (Z score 2-3) | 4.55 |
| Cl.O=C(OC(CCCN1CCOCC1)c1ccc(F)cc1)C(c1ccccc1)c1ccccc1 (stereo not drawn) [519B04] | 2.10 | W (weak (Z score 2-3) | – | – |
| COc1ccc(OCC(=N)NC(=S)Nc2ccc(Cl)cc2)cc1 [1520B19] | 2.51 | W (weak (Z score 2-3) | – | – |
| CC(=O)C1=C(C)NC(SCC(=O)c2ccc(Cl)cc2Cl)=C(C#N)C1c1sccc1C (stereo not drawn) [1159B21] | 2.34 | W (weak (Z score 2-3) | – | – |
| CCC1(C2OC(C3OC(O)(CO)C(C)CC3C)CC2C)CCC(C2(C)CCC3(CC(O)C(C)C(C(C)C(OC)C(C)C(=O)[O-])O3)O2)O1.[Na+] (stereo not drawn) [1570E18] | 9.26 | S (strong (Z score > 5)) | – | – |
| COc1ccccc1C1Oc2ccc(Cl)cc2C2CC(c3ccc(Cl)cc3)=NN21 (stereo not drawn) [1158M11] | 4.34 | M (medium (Z score 3-5)) | – | – |
| CCC1C=CC=CCC(C)C(O)C(C)(O)C(=O)C(C)C(O)C(C)C(=O)C(C)C(O)C(C)C=CC(=O)OC2C(C)C(CC1)OC1(CCC(C)C(CC(C)O)O1)C2C (stereo not drawn) [500B11] | 3.61 | M (medium (Z score 3-5)) | – | – |
| CC(=O)N1CCC(N(C(=O)C2CC2)c2ccc3c(c2)CCN3C(C)=O)CC1 [520E02] | 2.46 | W (weak (Z score 2-3) | – | – |
| CC(C)COCC(CN(Cc1ccccc1)c1ccccc1)N1CCCC1.Cl (stereo not drawn) [500F12] | 5.49 | S (strong (Z score > 5)) | – | – |
| Cl.N=C(N)NC(=O)c1nc(Cl)c(N)nc1N [500J04] | 2.43 | W (weak (Z score 2-3) | – | – |
| COc1ccc2c(c1)OC1(C=C2)N(C)c2ccccc2C1(C)C (stereo not drawn) [1159E12] | 12.29 | S (strong (Z score > 5)) | – | – |
| NCC(O)c1ccc(O)c(O)c1 (stereo not drawn) [500L12] | 9.42 | S (strong (Z score > 5)) | – | – |
| CC(C)(C)c1ccc(C(=O)N2CCC(N(C3CC3)S(=O)(=O)c3cccc(C(F)(F)F)c3)CC2)cc1 [521J08] | 2.93 | W (weak (Z score 2-3) | – | – |
| CCCC(C(=O)OCCN(CC)CC)(c1ccccc1)c1ccccc1.Cl [1570K18] | 3.31 | M (medium (Z score 3-5)) | – | – |
| COc1ccc2[nH]cc(CCNC(=O)OCC3CC4CCC3C4)c2c1 (stereo not drawn) [567M20] | 4.13 | M (medium (Z score 3-5)) | – | – |
| C=CCNC1=C2CC(C)CC(OC)C(O)C(C)C=C(C)C(OC(N)=O)C(OC)C=CC=C(C)C(=O)NC(=CC1=O)C2=O (stereo not drawn) [1361H16] | 3.92 | M (medium (Z score 3-5)) | – | – |
| NCC1OC(OC2C(N)CC(N)C(O)C2OC2OC(CO)C(O)C2O)C(N)C(O)C1O.O=S(=O)(O)O (stereo not drawn) [1570G18] | 6.58 | S (strong (Z score > 5)) | – | – |
| COc1ccccc1CNC1CC(C)(C)n2cccc21 (stereo not drawn) [519F12] | 2.47 | W (weak (Z score 2-3) | – | – |
| CCOC(=O)C1=C(C)N=c2sc(=Cc3ccc(N4CCOCC4)o3)c(=O)n2C1c1ccc2c(c1)OCO2 (stereo not drawn) [1158O07] | 8.87 | S (strong (Z score > 5)) | – | – |
| O=c1c(C(F)(F)F)cccn1CCc1nc(-c2ccccc2)cs1 [1520N01] | 3.32 | M (medium (Z score 3-5)) | – | – |
| CN1CCCN(C(c2ccccc2)c2ccc(Cl)cc2)CC1.Cl (stereo not drawn) [1568J08] | 2.49 | W (weak (Z score 2-3) | – | – |
